# Test results published in patent US20100048536A1, “Novel Substituted Diaryl Azepine Derivatives as Integrin Ligands” (priority 2000, published 2010).
# Molecular target: T1, integrin αvβ3 (Homo sapiens, UniProt P05106+P06756)
# T1 construct: from tissue; host or cells: human placenta
# Experiment: Integrin αvβ3 assay (competition with vitronectin for binding to solid phase-bound integrin αvβ3)
# Conditions: integrin αvβ3 from human placenta, qualitative ranking only
# Procedure: For the identification and assessment of integrin αvβ3 ligands, a test system was used which was based on competition between the natural integrin αvβ3 ligand vitronectin and the test substance for binding to solid phase-bound integrin αvβ3
# • Microtiter plates coated with 250 ng/ml of integrin αvβ3 in 0.05 M NaHCO3 pH 9.2; 0.1 ml/well; • saturation with 1% powdered milk/assay buffer; 0.3 ml/well; 0.5 h/RT • 3× washing with 0.05% Tween 20/assay buffer • test substance in 0.1% powdered milk/assay buffer, 50 μl/well+0 μg/ml or 2 μg/ml of human vitronectin (Boehringer Ingelheim T007) in 0.1% powdered milk/assay buffer, 50 μl/well; 1 h/RT • 3× washing with 0.05% Tween 20/assay buffer • 1 μg/ml of anti human vitronectin antibody coupled to peroxidase (Kordia SAVN-APHRP) in 0.1% powdered milk/assay buffer; 0.1 ml/well; 1 h/RT • 3× washing with 0.05% Tween 20/assay buffer • 0.1 ml/well of peroxidase substrate • stop reaction with 0.1 ml/well of 2 M H2SO4 • measurement of the absorption at 450 nm
# Integrin αvβ3: Human placenta is solubilized with Nonidet and integrin αvβ3 affinity-purified on a GRGDSPK matrix (elution with EDTA). Impurities due to integrin αIIbβ3 and human serum albumin, and the detergent and EDTA are removed by anion-exchange chromatography. […]
smiles,measurement,value
"CN1C(=O)c2ccccc2C(CC(=O)O)c2ccc(OCCCCNc3ccccn3)cc21 (stereo not shown) [Example I, {5-Methyl-6-oxo-3-{4-(2-pyridinylamino)-butoxy]-6,11-dihydro 5H-dibenzo[b,e]azepin-11-yl}acetic acid]",IC50 values (concentration of the ligand at which 50% of the ligand is displaced),best result
